From patent publication US12622910B2, “Inhibitors of Bruton's tyrosine kinase and methods of their use” (Janssen Pharmaceutica NV, priority 2021, dated 2026)

Columns and labels:
CB1 (h) = CB1 (h) (Homo sapiens, UniProt P21554); assay: Receptor panel, Study 2; assay type: binding
Protocol: (§1) RESULTS AND DISCUSSION—Selectivity—The compound of Formula (III) was evaluated in three selectivity panels to assess the potential for off-target pharmacology (Table 8). […] The kinase off-target profile of The compound of Formula (III) was assessed in a full human wild-type panel using radiometric kinase activity assays (KinaseProfiler™ and IC50Profiler™; Eurofins Scientific) (Table 9; FIG. 23). The compound of Formula (III) inhibited 4/278 kinases >50% at 1 micromolar, identifying BTK and the three other kinases having analogous Cys residues with the potential for covalent inhibition (BMX, TEC, BLK). […]. The cellular kinase selectivity of The compound of Formula (III) was established in native Ramos B cell kinome assays (KiNativ™; ActivX) confirmed BTK as the primary target with inhibition of BLK and TEC inhibition detected (Table 10).

CB2 (h) = CB2 (h) (Homo sapiens, UniProt P34972); assay: Receptor panel, Study 2; assay type: binding
Protocol: as §1

Ca channel = assay: Receptor panel, Study 2; assay type: binding
Protocol: as §1

GR (h) = GR (h) (Homo sapiens, UniProt P04150); assay: Receptor panel, Study 2; assay type: binding
Protocol: as §1

N neuronal α4β2 (h) = N neuronal α4β2 (h) (Homo sapiens, UniProt P17787+P43681); assay: Receptor panel, Study 2; assay type: binding
Protocol: as §1

NMDA = assay: Receptor panel, Study 2; assay type: binding
Protocol: as §1

PDE3A (h) = PDE3A (h) (Homo sapiens, UniProt Q14432); assay: Receptor panel, Study 2; assay type: binding
Protocol: as §1

PDE4D2 (h) = PDE4D2 (h) (Homo sapiens, UniProt Q08499); assay: Receptor panel, Study 2; assay type: binding
Protocol: as §1

mGluR5 (h) = mGluR5 (h) (Homo sapiens, UniProt P41594); assay: Receptor panel, Study 2; assay type: binding
Protocol: as §1

Caco-2 permeability = assay type: in vitro ADME; details: human
Protocol: (§4) In vitro Absorption, Distribution, Metabolism, and Excretion—The compound of Formula (III) was assessed at a concentration of 5 μM in cell permeability models.

Caco-2 = Caco-2 permeability; assay type: in vitro ADME; details: Caco-2, 5 μM
Protocol: as §4

[1] = Plasma protein binding, equilibrium dialysis; assay type: in vitro ADME, Sprague Dawley rat
Protocol: (§2) Additional Data on Preclinical PK Profile—Protein binding of the compound of Formula (III) was studied using an equilibrium dialysis method in plasma from human, cynomolgus monkey, beagle dog, Sprague Dawley rat, CD-1 mouse, and guinea pig at 0.25, 2.5, and 25 μM. […] In human and monkey, the plasma protein binding was concentration dependent. […] Free fraction of the compound of Formula (III) in liver microsomes from various species ranged from 75.1% to 87.9% at 0.25 mg/mL and from 58.9% to 86.5% at 1.0 mg/mL (Table 17). […] In hepatocytes, the compound of Formula (III) turnover followed a similar trend, with T1/2 ranging from 75.3 minutes in monkey to 278.1 minutes in human.

[2] = Blood-to-plasma concentration ratio; assay type: in vitro ADME; details: human, fresh blood
[3] = Blood-to-plasma concentration ratio; assay type: in vitro ADME; details: monkey, fresh blood
[4] = Metabolic stability in liver microsomes; assay type: in vitro ADME, mouse
Protocol: as §2

CYP3A4 (CYP3A) = CYP3A4 (CYP3A) (Homo sapiens, UniProt P08684); assay: Time-dependent inhibition of CYP3A in human liver microsomes; assay type: in vitro ADME; details: probe testosterone
Protocol: (§3) To assess the potential of the compound of Formula (III) to be a time-dependent inhibitor of CYP3A, human liver microsomes were preincubated for 30 minutes at 37° C. with the compound of Formula (III) at concentrations up to 10 μM, and CYP3A activity was measured using testosterone as a probe substrate. […] The potential of the compound of Formula (III) to induce CYPs at the transcriptional level was assessed using Puracyp™ DPX2 (CYP3A4, PXR) and DRE (CYP1A2, AhR) luciferase-reporter cell lines; rifampicin and omeprazole were used as positive controls for CYP3A and CYP1A induction, respectively. The activation by the compound of Formula (III) was <20% of positive control values for PXR (6.6% and 14.1% at 1 and 10 μM change, respectively) or AhR (0.1% and 0.3% change, respectively). […] Potential involvement of various CYP isoforms in the metabolism of the compound of Formula (III) was investigated by measuring the parent compound remaining after 1-hour incubation with the compound of Formula (III) (1 μM) with recombinant CYPs (rCYPs) at 100 pmol P450/mL in the presence of 1 mM NADPH at 37° C. The only isozyme that produced notable the compound of Formula (III) turnover with <1% parent remaining after 1-hour incubation was CYP3A4 (FIG. 24). […]

AhR = assay: Puracyp DRE luciferase-reporter cell line (CYP1A2 induction); assay type: in vitro ADME
Protocol: as §3

CYP3A4 = biological target: T1, CYP3A4 (Homo sapiens, UniProt P08684); assay: Chemical inhibition of turnover in pooled human liver microsomes (ketoconazole); assay type: in vitro ADME; details: 1 μM, HLM 0.5 mg/mL
T1 construct: with specific CYP probe substrates in human liver microsomes; from tissue; host or cells: human liver microsomes

B-cell activation = assay: Inhibition of B-cell activation after dosing (FIG. 22); assay type: in vivo; details: 2, 3, and 10 mg/kg, at 8 hours
Excerpt: Data represent mean±SEM (n=3/group).

CYP3A4 (CYP3A), sequence (P08684 2-503): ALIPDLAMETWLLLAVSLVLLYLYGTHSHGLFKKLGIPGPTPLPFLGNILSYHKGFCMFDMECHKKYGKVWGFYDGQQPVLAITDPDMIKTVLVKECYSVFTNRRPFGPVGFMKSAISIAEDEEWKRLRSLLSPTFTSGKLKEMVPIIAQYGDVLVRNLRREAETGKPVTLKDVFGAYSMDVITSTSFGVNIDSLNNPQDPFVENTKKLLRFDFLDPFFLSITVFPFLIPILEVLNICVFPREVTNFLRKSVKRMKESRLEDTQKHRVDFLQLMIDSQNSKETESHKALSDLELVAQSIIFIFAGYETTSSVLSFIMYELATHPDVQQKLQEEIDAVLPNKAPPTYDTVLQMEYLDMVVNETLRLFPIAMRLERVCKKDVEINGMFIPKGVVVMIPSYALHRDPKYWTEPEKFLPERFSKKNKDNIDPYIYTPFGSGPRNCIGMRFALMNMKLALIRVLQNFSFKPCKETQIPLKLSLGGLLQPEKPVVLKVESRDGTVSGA
GR (h), sequence (P04150 whole entry): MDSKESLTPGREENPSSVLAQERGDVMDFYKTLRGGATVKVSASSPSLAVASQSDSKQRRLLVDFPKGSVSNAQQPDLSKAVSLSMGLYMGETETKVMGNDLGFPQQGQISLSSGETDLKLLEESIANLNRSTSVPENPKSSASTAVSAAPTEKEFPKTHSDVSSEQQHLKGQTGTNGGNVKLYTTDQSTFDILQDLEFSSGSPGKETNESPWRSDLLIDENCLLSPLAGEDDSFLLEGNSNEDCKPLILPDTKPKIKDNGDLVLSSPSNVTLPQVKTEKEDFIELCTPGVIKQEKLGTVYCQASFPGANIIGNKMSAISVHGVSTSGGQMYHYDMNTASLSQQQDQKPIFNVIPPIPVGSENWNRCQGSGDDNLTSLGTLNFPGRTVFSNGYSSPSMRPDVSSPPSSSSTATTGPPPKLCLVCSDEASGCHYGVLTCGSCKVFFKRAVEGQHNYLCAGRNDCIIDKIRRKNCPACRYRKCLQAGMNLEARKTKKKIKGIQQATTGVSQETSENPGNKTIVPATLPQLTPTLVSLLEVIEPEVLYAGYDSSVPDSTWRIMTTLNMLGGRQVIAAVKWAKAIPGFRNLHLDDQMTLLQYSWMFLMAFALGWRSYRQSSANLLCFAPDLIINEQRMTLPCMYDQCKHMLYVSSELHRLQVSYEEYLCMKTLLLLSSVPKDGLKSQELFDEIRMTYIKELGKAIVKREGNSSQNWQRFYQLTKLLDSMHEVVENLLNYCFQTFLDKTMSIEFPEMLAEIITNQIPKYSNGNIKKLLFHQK
PDE3A (h), sequence (Q14432 whole entry): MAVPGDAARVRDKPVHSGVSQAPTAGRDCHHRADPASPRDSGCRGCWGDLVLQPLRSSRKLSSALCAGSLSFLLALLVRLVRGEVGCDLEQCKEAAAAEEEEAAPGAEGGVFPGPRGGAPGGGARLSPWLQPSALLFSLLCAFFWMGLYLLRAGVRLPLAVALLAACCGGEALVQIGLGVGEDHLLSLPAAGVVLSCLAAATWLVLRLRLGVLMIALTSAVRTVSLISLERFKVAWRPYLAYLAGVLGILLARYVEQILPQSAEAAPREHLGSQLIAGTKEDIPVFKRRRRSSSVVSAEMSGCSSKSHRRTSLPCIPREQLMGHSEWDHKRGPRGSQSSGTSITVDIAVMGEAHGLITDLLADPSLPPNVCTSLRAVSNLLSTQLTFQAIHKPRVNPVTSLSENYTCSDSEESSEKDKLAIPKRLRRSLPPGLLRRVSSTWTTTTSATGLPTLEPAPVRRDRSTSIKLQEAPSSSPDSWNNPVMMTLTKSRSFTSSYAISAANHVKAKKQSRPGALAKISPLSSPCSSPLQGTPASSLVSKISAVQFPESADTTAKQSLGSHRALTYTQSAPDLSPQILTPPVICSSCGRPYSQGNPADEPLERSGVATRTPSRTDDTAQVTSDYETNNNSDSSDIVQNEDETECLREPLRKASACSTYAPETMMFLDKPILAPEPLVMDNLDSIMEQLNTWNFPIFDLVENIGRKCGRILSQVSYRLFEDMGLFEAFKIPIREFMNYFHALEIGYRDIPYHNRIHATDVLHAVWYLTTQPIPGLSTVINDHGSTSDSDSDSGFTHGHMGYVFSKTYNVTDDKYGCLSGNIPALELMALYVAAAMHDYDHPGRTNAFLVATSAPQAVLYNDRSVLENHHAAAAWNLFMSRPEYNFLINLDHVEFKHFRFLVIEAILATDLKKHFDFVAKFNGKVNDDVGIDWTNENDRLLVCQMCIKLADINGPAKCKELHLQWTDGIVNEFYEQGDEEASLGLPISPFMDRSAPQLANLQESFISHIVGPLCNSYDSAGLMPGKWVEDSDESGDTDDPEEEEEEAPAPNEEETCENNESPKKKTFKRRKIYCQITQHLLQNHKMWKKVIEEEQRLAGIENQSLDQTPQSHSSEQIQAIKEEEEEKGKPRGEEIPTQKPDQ
CB1 (h), sequence (P21554 whole entry): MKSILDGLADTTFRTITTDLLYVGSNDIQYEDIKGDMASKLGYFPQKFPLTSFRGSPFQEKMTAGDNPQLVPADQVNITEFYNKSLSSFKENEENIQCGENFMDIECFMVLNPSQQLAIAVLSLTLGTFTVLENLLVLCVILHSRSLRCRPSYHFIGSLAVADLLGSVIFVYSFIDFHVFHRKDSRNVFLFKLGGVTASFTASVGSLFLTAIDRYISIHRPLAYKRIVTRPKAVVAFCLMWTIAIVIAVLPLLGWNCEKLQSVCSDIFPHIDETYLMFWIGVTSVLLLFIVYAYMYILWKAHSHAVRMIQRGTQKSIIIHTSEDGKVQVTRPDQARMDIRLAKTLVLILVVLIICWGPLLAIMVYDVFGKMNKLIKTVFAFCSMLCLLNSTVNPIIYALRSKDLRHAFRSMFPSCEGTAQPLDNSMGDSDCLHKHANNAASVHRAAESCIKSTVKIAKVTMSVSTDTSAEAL
mGluR5 (h), sequence (P41594 21-1212): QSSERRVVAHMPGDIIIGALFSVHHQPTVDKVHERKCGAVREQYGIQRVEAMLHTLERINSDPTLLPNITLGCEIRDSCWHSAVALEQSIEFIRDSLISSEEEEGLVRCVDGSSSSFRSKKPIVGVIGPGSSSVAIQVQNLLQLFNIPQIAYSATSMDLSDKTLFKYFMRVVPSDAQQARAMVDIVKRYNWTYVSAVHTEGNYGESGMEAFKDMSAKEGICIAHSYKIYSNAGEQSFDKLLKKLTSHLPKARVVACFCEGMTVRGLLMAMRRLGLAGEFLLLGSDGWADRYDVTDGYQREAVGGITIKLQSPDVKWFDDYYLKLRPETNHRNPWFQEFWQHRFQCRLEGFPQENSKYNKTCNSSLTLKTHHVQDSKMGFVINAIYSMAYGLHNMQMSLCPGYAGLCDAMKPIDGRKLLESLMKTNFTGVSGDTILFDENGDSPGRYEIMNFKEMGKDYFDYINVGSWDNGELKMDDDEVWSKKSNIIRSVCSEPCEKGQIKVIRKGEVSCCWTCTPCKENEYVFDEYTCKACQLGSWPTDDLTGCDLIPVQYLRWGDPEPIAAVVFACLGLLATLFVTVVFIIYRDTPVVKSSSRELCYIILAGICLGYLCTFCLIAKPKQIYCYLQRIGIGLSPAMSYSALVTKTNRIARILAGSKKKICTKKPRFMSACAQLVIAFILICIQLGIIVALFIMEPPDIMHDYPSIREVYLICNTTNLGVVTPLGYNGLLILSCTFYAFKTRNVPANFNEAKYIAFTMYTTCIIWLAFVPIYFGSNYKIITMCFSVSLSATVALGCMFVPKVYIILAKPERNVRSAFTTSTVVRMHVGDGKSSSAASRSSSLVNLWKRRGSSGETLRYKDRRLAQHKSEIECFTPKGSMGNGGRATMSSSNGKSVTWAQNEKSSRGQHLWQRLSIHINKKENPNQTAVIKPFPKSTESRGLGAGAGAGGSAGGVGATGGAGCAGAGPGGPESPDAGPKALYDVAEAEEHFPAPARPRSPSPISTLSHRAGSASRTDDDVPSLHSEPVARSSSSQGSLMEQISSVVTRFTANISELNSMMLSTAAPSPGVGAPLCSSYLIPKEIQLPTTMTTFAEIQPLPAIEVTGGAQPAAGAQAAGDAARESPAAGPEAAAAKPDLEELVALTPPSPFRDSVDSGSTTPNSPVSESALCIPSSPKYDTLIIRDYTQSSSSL
CB2 (h), sequence (P34972 whole entry): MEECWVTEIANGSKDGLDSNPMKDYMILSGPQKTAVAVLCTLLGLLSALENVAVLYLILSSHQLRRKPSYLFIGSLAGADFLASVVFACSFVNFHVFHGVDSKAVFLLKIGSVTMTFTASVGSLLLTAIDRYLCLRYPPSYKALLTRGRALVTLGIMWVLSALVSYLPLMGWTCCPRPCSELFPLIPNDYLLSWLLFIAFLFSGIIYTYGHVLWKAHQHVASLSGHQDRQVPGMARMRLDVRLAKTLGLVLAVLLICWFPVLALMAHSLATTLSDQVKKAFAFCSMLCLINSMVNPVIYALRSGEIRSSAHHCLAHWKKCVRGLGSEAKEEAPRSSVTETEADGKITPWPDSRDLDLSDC
T1 sequence (P08684 whole entry): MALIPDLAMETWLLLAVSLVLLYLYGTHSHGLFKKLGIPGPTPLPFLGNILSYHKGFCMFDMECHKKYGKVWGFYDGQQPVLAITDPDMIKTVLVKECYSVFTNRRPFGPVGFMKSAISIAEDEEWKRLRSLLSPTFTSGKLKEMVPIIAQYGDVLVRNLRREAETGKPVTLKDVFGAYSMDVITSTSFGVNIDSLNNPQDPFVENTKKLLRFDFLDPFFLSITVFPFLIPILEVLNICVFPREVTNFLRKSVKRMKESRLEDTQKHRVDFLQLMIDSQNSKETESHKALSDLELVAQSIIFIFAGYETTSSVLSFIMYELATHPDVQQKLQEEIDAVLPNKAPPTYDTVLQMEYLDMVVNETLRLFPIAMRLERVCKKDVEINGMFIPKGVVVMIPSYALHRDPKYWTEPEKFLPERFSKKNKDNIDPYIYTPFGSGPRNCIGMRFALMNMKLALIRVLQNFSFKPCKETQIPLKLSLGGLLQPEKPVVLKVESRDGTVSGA

In the case of C=CC(=O)N[C@H]1CCC[C@H]1NC(=O)c1sc2nccc3c2c1NC(=O)N3c1cnc(CC(C)C)cc1C (atropisomer, axis not shown) [compound of Formula (III), N-((1R,2S)-2-Acrylamidocyclopentyl)-5-(S)-(6-isobutyl-4-methylpyridin-3-yl)-4-oxo-4,5-dihydro-3H-1-thia-3,5,8-triazaacenaphthylene-2-carboxamide], the inhibition at 10 µM (CB1 (h)) is reported as under 10%, the inhibition at 10 µM (CB2 (h)) is reported as under 10% and the “% Inhibition at 10 μM” value (Ca channel) is reported as “— (no inhibition observed)”. For the same molecule, the inhibition at 10 µM (GR (h)) was under 10%, the inhibition at 10 µM (N neuronal α4β2 (h)) was under 10% and the “% Inhibition at 10 μM” value (NMDA) was “— (no inhibition observed)”. The inhibition at 10 µM (PDE3A (h)) was under 10%, the inhibition at 10 µM (PDE4D2 (h)) was under 10% and the inhibition at 10 µM (mGluR5 (h)) was under 10%. It also gave an efflux ratio at 5 μM (Caco-2 permeability; Caco-2, read-out: Efflux Ratio (BA/AB)) of 8.2, a Papp A→B at 5 μM (Caco-2 permeability; Caco-2, 5 μM) of 6.69 ×10⁻⁶ cm/s and a Papp B→A at 5 μM (Caco-2 permeability; Caco-2, 5 μM) of 54.9 ×10⁻⁶ cm/s. For the same molecule, the “Papp A to B” value (Caco-2) was 6.69 10^−6 cm/s, the “Papp B to A” value (Caco-2) was 54.9 10^−6 cm/s and the “% Free in plasma” value ([1]; 0.25 μM) was 3.73%. For the same molecule, the fraction unbound at 2.5 μM ([1]; Sprague Dawley, rat, plasma, 2.5 μM, read-out: % Free in plasma) was 0.0365, the fraction unbound at 25 μM ([1]; Sprague Dawley, rat, plasma, 25 μM, read-out: % Free in plasma) was 0.0405 and the blood plasma ratio at 1 μM [2] was 0.67. For the same molecule, the blood plasma ratio at 1 μM [3] was 0.69, the “Extraction Ratio, liver microsomes” value ([4]; Mouse) was 0.79 and the microsomal CLint ([4]; mouse, liver microsomes) was 142 µL/min/mg. For the same molecule, the half-life ([4]; mouse, liver microsomes, read-out: T1/2, liver microsomes) was 4.9 min, the IC50 (CYP3A4 (CYP3A); with 30 min preincubation) was 9.81 µM and the IC50 (CYP3A4 (CYP3A); without preincubation) was over 10 µM. The “AhR activation, % of positive control (omeprazole)” value (AhR; 1 μM) was 0.1%, the “AhR activation, % of positive control (omeprazole)” value (AhR; 10 μM) was 0.3% and the “inhibition of turnover by ketoconazole” value (CYP3A4) was over 97%. The “inhibition ratio of B-cell activation” value (B-cell activation) was at least 78%.
